What was measured:
[1] = test system: human neural progenitor cells (hNPC); test: Proliferation and phenotype of human neural progenitor cells (hNPC); format: cell-based
Method: To determine the impact of THP on hNPC cell proliferation, a dose response (pM-nM) experiment was performed. Results of these analyses indicate:
To determine the impact of THP on the stability of hNPC phenotype, hNPCs were double labeled with BrdU, Tuj1 and MAP2, or GFAP.
To determine whether the same mechanisms of THP-induced proliferation in rodent derived NPCs could be generalized to humans, we determined the requirement of the GABAAR by antagonizing the GABAAR with bicuculline followed by assessment of THP-induced hNPC cell proliferation.

SVZ from 3×TgAD mice = test: Unbiased stereology of BrdU-positive cells in subventricular zone; format: in vivo, mouse; details: 10 mg/kg
[2] = THP concentration in plasma and cortex by GC/MS; format: in vivo, mouse
Method: Cortices from brain hemisection of mice treated with THP or vehicle were collected at time of sacrifice for measurement of THP by GC/MS. Plasma was also collected at time of sacrifice. Three-month-old male non-Tg and 3×TgAD mice were subcutaneously injected with THP (1, 10, and 20 mg/kg BW) or vehicle (0.1% ethanol in PBS, n=4 in each group). The mice were sacrificed 24 hours later. THP concentration in plasma and brain were measured by GC/MS. […] In the 3×TgAD mouse cortex, a 10 mg/kg dose of THP results in a cortical level of 20 ng/g protein 24 hrs post injection.

PCNA and CDK1/cdc2 = PCNA and CDK1/cdc2 mRNA and protein in hippocampus (RT-PCR, Western blot); format: in vivo, mouse
Method: Protein was extracted from mouse hippocampus and separated by SDS gel as described in the literature. After transfer, PVDF membrane was plotted with monoclonal antibody for proliferating cell nuclear antigen (PCNA, 1:500, Zymed Laboratories Inc, San Francisco, Calif.) and then incubated with a horseradish peroxidase conjugated secondary antibody which is complementary to the primary antibody. Results were visualized by the ECL Plus Western Blotting Detection System (GE Healthcare, Amersham, Buckinghamshire, UK) followed by TMB development. Optical density was and analyzed by BioRad Quantity One software. The percent protein expression vs. control was normalized by loading control β-actin.
Brain samples derived from the same brains that underwent unbiased stereological analysis and GC/MC for THP detection were also analyzed by real-time RT-PCR and Western blot for expression of PCNA and CDK1 mRNA and protein.
To confirm the stereological analyses results, Western blot analyses of cell proliferation marker PCNA were carried out using samples derived from the same brains which underwent unbiased stereological analysis. PCNA, or Proliferating Cell Nuclear Antigen, is a protein that acts as a processivity factor for DNA polymerase delta subunit in eukaryotic cells and was induced in vitro by THP in cultured rat hippocampal progenitor cells.
Western blot analysis was performed to determine proliferating cell nuclear antigen (PCNA) expression levels in the hippocampus from the same animals that underwent behavior experiments.

With `CC(=O)[C@H]1CC[C@H]2[C@@H]3CC[C@H]4C[C@H](O)CC[C@]4(C)[C@H]3CC[C@]12C` [THP, 3α-hydroxy-5α-pregnan-20-one] the “efficacy as neurogenic factor compared with bFGF+heparin” value [1] was “exceeded that of bFGF+heparin”, the “proliferative efficacy compared with positive control bFGF” value ([1]; 250 nM THP) was “as efficacious a proliferative factor as the positive control, bFGF” and the “concentration at which proliferation was first evident” value ([1]; dose response) was 1 nM. The “concentration at which proliferative efficacy diminished” value ([1]; dose response) was 1000 nM, the “concentration of maximal proliferation” value ([1]; dose response, sustained at 250 and 500 nM) was 100 nM and the “increase in human neural progenitor cell proliferation” value ([1]; doses within an achievable therapeutic range) was 50%. The “number of BrdU positive hNPCs vs vehicle” value ([1]; double labeling) was “significantly increased”, the “proportion of Tuj1, MAP2 or GFAP cells vs vehicle” value ([1]; double labeling) was “not changing” and the “time at which hNPC proliferation reached maximum” value ([1]; time course) was 6 h. The “time at which hNPC proliferation was evident” value ([1]; time course) was 3 h, the “increase in BrdU-positive cells relative to untreated group” value (SVZ from 3×TgAD mice) was 58% and the “dose dependence of THP in plasma and cortex” value ([2]; 1, 10 and 20 mg/kg BW s.c., 24 hours) was “linear dose dependent manner”. The “cortical level of THP” value ([2]; 3×TgAD mouse cortex, 10 mg/kg s.c., 24 hrs post injection) was 20 ng/g protein, the “THP level in 3×TgAD relative to nontransgenic treated mice” value ([2]; plasma and cortex, 24 hours) was “consistently lower level of THP in both plasma and cortex” and the “PCNA and CDK1 protein expression in hippocampi” value (PCNA and CDK1/cdc2; 10 mg/kg, Western blot, 3 months) was “greater PCNA and CDK1 protein expression in the hippocampi of 3×TgAD relative to the non-Tg mice”. The “PCNA expression vs vehicle 21 day after injection” value (PCNA and CDK1/cdc2; 3×TgAD mice, 6, 9 or 12-month-old) was “no significant difference”, the “PCNA mRNA in hippocampus” value (PCNA and CDK1/cdc2; 3×TgAD mice, real-time RT-PCR, 1-20 mg/kg) was “dose-dependent increase in PCNA mRNA” and the “PCNA immunoblot vs vehicle control” value (PCNA and CDK1/cdc2; 3×TgAD mice, three and six month, 24 hours after 10 mg/kg) was “increased”. For the same compound, the “PCNA expression vs vehicle” value (PCNA and CDK1/cdc2; non-Tg and 3×TgAD mice, 6- and 9-months, 24 hr) was “did not significantly affect PCNA expression”.
